Consider two molecules from patent US5846939A, “Use of a decapeptide with benzodiazepine-type activity for preparing medicines and food supplements” (Societe Cooperative Agricole Laitiere D'Artois Et Des …, priority 1994, dated 1998).

Test [1] deals with anxiety in the rat (elevated plus-maze). In words: Tranquilizing activity, elevated plus-maze test. In kind it is in vivo. The following applies: intraperitoneal, diazepam 2 mg/kg, hydrolysate 3 mg/kg. The text has this:
To measure anxiety in the rat, the elevated plus-maze test described by Pellow et al. (14) was used which is based on neophobia in the rat. The plus-maze had four branches that were 50 cm long and 10 cm wide. The two closed branches were surrounded by walls that were 25 cm high (the top being left open for observation) and the entire maze was 50 cm above the ground. The center of the maze communicated with the two open arms and the two closed arms.
The number of times the animal enters the open arms, the closed arms, and the total number of times the rat enters the arms are important parameters. The time passed in each type of branch was also measured. Other parameters (a total of 22) such as the number of times the rat stood up, the number of times it groomed itself (signs of anxiety), or latency of first entry into an open or closed branch were taken into account. […] Its entire behavior was filmed by video camera, which procedure served to avoid errors.
The control group (CTR) received an intraperitoneal injection of solvent only, which solvent was a mixture of gelatin and mannitol (0.5%/5%) dissolved in water. […] The animals in all of the groups were injected half an hour before going to the plus-maze. To begin the experiments, each rat was placed in the center of the apparatus.

The target in test [2] is central benzodiazepine receptor. As to conditions: radioligand of the kit; cited from earlier work.

As to `CN1C(=O)CN=C(c2ccccc2)c2cc(Cl)ccc21` [diazepam], the “number of entries into closed branches” value in test [1] is recorded as “did not vary significantly”. The “number of entries into open branches” value in test [1] (control 1.5±0.3) turned out to be 3.0±0.4. Also, the “time spent in the open branches” value in test [1] (control 19.3±4.4 s) was found to be 70.1 ± 19.9 s.
By Ki is commonly meant the dissociation constant of the complex between target and ligand, obtained from inhibition or displacement. Take `CN1C(=O)CN=C(c2ccccc2F)c2cc([N+](=O)[O-])ccc21` [^3 H-methyl-flunitrazepam]: the Ki in test [2] is 1.2 nM.
